In patent publication US20240173285A1, “COMPOSITIONS COMPRISING EPA AND METHODS OF USING THE SAME FOR TREATING AND/OR PREVENTING ENDOTHELIAL DYSFUNCTION IN A SUBJECT” (Amarin Pharmaceuticals Ireland Limited, priority 2021, published 2024):

How the values were obtained:
[1] = test system: HUVECs; test: Peroxynitrite (ONOO-) release from HUVECs measured with porphyrinic nanosensor; assay type: cell-based, human; details: 10 μM 2 hours, then IL-6 12 ng/ml 24 h; for ONOO- Release: calcium ionophore, mean ± SEM, N = 4-5
Description: FIG. 5 is a schematic illustration of the ONOO— assay. The nanosensor is used to quantitate endothelial NO and ONOO— release in real time and is made by depositing a sensing material on the tip of carbon fiber with a diameter of only 0.5 μm. The fiber is sealed with nonconductive epoxy and electrically connected to wires (gold, copper) with conductive silver epoxy. Conductive films of polymeric Ni(II) tetrakis (3-methoxy-4-hydroxyphenyl) porphyrin and Mn(III) paracyclophanylporphyrin were used for the NO and ONOO— sensors, respectively.
Release of ONOO— from HUVECs was measured as previously described. Briefly, in parallel with the cellular preparations for proteomic analysis, HUVECs were stimulated with calcium ionophore and ONOO— was measured using a porphyrinic nanosensor (FIG. 5).

[2] = test system: HUVECs; test: NO release from HUVECs measured with tandem porphyrinic nanosensors; assay type: cell-based, human; details: for NO Release: then IL-6 12 ng/ml 24 h, calcium ionophore, mean ± SEM, N = 4-5
Description: (§1) Human pulmonary ECs (PECs) and umbilical vein ECs (HUVECs) were treated with vehicle or EPA (40/10 μM in PECs/HUVECs) and IL-6 (12 ng/ml) for 24 hours. Proteomic analysis was performed using liquid chromatography/mass spectroscopy. […] NO release was measured in HUVECs using tandem porphyrinic nanosensors following stimulation with calcium.
NO release from HUVECs was measured as previously described. Briefly, in parallel with the cellular preparations for proteomic analysis, HUVECs were stimulated with calcium ionophore and NO was measured using tandem porphyrinic nanosensors.

[3] = test system: umbilical vein ECs (HUVECs); test: Proteomic analysis (LC/MS) of HUVECs treated with EPA and IL-6 for 24 hours; assay type: cell-based, human; details: EPA 10 μM + IL-6 12 ng/ml
Description: as §1, with “Human pulmonary ECs (PECs) and umbilical vein ECs (HUVECs) were treated with vehicle or EPA (40/10 μM in PECs/HUVECs) and IL-6 (12 ng/ml) for 24 hours. Proteomic analysis was performed using liquid chromatography/mass spectroscopy. […] Human” for “Human”

[4] = test system: Human pulmonary ECs (PECs); test: Proteomic analysis (LC/MS) of pulmonary ECs treated with EPA and IL-6 for 24 hours; assay type: cell-based; details: EPA 40 μM + IL-6 12 ng/ml
Description: as §1, with “Human pulmonary ECs (PECs) and umbilical vein ECs (HUVECs) were treated with vehicle or EPA (40/10 μM in PECs/HUVECs) and IL-6 (12 ng/ml) for 24 hours. Proteomic analysis was performed using liquid chromatography/mass spectroscopy. […] Human” for “Human”

[5] = test system: Human PECs; test: Fatty acid content of PECs by GC/MS; assay type: cell-based; details: PECs pretreated with EPA 40 μM, IL-6
Description: Human PECs were pretreated with vehicle or EPA (40 μM) for 2 hours, then challenged with IL-6 at 12 ng/ml for 24 hours. Proteomic analysis was performed using LC/MS to capture relative expression levels. Only significant changes in protein expression between treatment groups >2-fold were analyzed. Levels of intercellular adhesion molecule-1 (ICAM-1) were measured by immunochemistry. EPA, docosahexaenoic acid (DHA), docosapentaenoic acid (DPA), palmitic acid (PA), linoleic acid (LA) and arachidonic acid (AA) content was measured by GC/MS.

[6] = test system: Human pulmonary ECs; test: Proteomic analysis (LC/MS) of pulmonary ECs treated with EPA after IL-6 exposure; assay type: cell-based; details: IL-6 12 ng/ml 2 hours, then EPA 24 h
Description: Human pulmonary ECs were treated with vehicle or EPA for 24 h after exposure to IL-6 at 12 ng/ml for 2 hours. Proteomic analysis was performed using liquid chromatography/mass spectroscopy to capture relative expression levels. Only significant changes in protein expression between treatment groups >1-fold with a p-value less than 0.05 were analyzed.

[7] = test system: heme oxygenase-1 (HMOX-1); test: HMOX-1 expression relative to IL-6 in HUVECs (LC/MS proteomics); assay type: cell-based, human; details: 10 μM 2 hours, then IL-6 12 ng/ml 24 h
Description: (§2) HUVECs were treated with vehicle, EPA, or DHA (10 μM) for 2 hours, and then challenged with IL-6 (12 ng/ml) for 24 h hours. After incubation, cells were pelleted and frozen at −80° C. until proteomic analysis was performed. Cell pellets were lysed using methanol/chloroform extraction. Proteins were denatured, reduced, alkylated, and trypsin digested. Samples were then prepared for Tandem Mass Tag (TMT) 10plex labeling. A bicinchoninic acid (BCA) assay was performed on each sample to quantify the total protein in each sample, which is important to confirm equal amounts of each sample are added to the multiplex sample. Each peptide in a sample was given a unique, low molecular weight (typically 126-130 Da), and then the samples were combined. Relative protein expression levels among the various treatments were measured using LC/MS proteomic techniques. Following protein digest, peptides are separated over a reverse phase column and then identified based on their mass.
Each multiplexed sample was then fractionated to increase the overall protein coverage using high pH reversed phase fractionation and analyzed by LC/MS using a Dionex UltiMate 3000 RSLC in tandem with a Q-Exactive/Lumos Orbitrap Mass Spectrometer. The chromatography was performed using a 2-hour gradient on a Thermo Pepmap C18 column (100 Å pore size, 3.0 μm particle size, […]×150 mm) set at 50° C. […]

[8] = test system: Platelet endothelial cell adhesion molecule 1 (PECAM-1); test: PECAM-1 expression relative to IL-6 in HUVECs (LC/MS proteomics); assay type: cell-based, human; details: 10 μM 2 hours, then IL-6 12 ng/ml 24 h
Description: as §2, with “AA” for “DHA”, “mass. Each multiplexed sample was then fractionated to increase the overall protein coverage using high pH reversed phase fractionation and analyzed by LC/MS using a Dionex UltiMate 3000 RSLC in tandem with a Q-Exactive/Lumos Orbitrap Mass Spectrometer. The chromatography was performed using a 2-hour gradient on a Thermo Pepmap C18 column (100 Å pore size, 3.0 μm particle size, […]×150 mm) set at 50° C. […]” for “mass.”

[9] = Clinical study of human participants exposed to high-dose ethyl EPA; assay type: in vivo; details: high-dose exposure
Description: Based on a clinical study of human participants, the inventors have discovered that exposure to a high-dose ethyl EPA (i.e., […]) is associated with fewer anemia AEs and higher hemoglobin and hematocrit. High-dose ethyl EPA exposure is also associated with higher levels of the heme derivative bilirubin, which is a potent antioxidant. […] Both biliverdin and bilirubin are potent antioxidants, but bilirubin is likely the stronger of the two. Bilirubin can be converted back into biliverdin rather than being eliminated, thus perpetuating both compounds' antioxidant effects.

## CCCCC/C=C\C/C=C\C/C=C\C/C=C\CCCC(=O)O [AA, arachidonic acid, reference compound]
[1]
  ONOO- Release: 194 ± 9 nM

## CC/C=C\C/C=C\C/C=C\C/C=C\C/C=C\C/C=C\CCC(=O)O [DHA, docosahexaenoic acid, reference compound]
[2]; 10 μM 2 hours
  NO Release: 404 ± 15 nM

## CC/C=C\C/C=C\C/C=C\C/C=C\C/C=C\CCCC(=O)O [EPA, eicosapentaenoic acid]
[3]
  Platelet endothelial cell adhesion molecule (PECAM) downregulation: 1.2 fold
  heme-oxygenase-1 increase: 1.6 fold
  integrin alpha-V decrease: 1.5 fold
  superoxide dismutase increase: 1.6 fold
[4]
  Platelet endothelial cell adhesion molecule (PECAM) downregulation: 1.2 fold
  amyloid-beta precursor protein decrease: 1.1 fold
  heme-oxygenase-1 increase: 1.9 fold
  integrin alpha-V decrease: 1.1 fold
  thrombin receptor decrease: 1.3 fold
[2]; 10 μM 2 hours, then IL-6 12 ng/ml 24 h (Example 5)
  increase of NO release compared to IL-6 alone: 13%
[2]; 10 μM 2 hours
  NO Release: 421 ± 12 nM
[2]; EPA 10 μM and IL-6 12 ng/ml 24 hours, calcium stimulation (Example 2)
  increase of NO release relative to IL-6 alone: 13%
[5]
  reduction of PA (palmitic acid) levels: 34%
[6]
  ACE level reduction: 1.1 fold
  ECE-1 level reduction: 1.3 fold
  Hsp90 increase compared to IL-6: 1.1 fold
  caveolin-1 downregulation compared to IL-6: 1.3 fold
[7]
  HMOX-1 Expression Relative to IL-6, Fold Change Increase: 1.58 fold
  upregulation of inducible HMOX-1 compared to IL-6 alone: 160%
[8]
  PECAM-1 Expression Relative to IL-6, Fold Change Increase: 1.22 fold
  decrease in PECAM-1: 120%
[1]
  decrease of ONOO— release relative to IL-6 alone: 17%
  ONOO- Release: 181 ± 10 nM

## CC/C=C\C/C=C\C/C=C\C/C=C\C/C=C\CCCC(=O)OCC [ethyl EPA, eicosapentaenoic acid ethyl ester]
[9]
  anemia AEs: fewer

## IL-6: cytokine interleukin-6 used to challenge endothelial cells (12 ng/ml) [reference compound]
[2]; 10 μM 2 hours
  NO Release: 371 ± 14 nM
[1]
  ONOO- Release: 217 ± 10 nM
